Results on 32 compounds are retold here after patent US20090209536A1, “AMINOQUINAZOLINE CANNABINOID RECEPTOR MODULATORS FOR TREATMENT OF DISEASE” (KALYPSYS, INC., priority 2007, published 2009).

Structures are written as SMILES.

Assay [1] has as its target T1, human cannabinoid receptor type 1 (Homo sapiens, UniProt P21554).
T1 construct: purchased Perkin Elmer RBHCB1M; host or cells: HEK 293 EBNA cells
Description: Human CB1 Radioligand Binding Assay (basis of selectivity, CB2 vs. CB1). As to conditions: CB1: HEK 293 EBNA cells expressing human CB1; CB2: CHO CB2 membranes. As to the method:
2. Human CB1 Radioligand Binding Assay
The incubation buffer was composed of 50 mM Tris-HCl pH 7.4, 2.5 mM EDTA, 5 mM MgCl2, 5.0 mg/ml fatty acid free BSA and the wash buffer was composed of 50 mM Tris-HCl pH 7.4, 2.5 mM EDTA, 5 mM MgCl2, 0.5 mg/ml fatty acid free BSA.

The target of assay [2] is T2, human cannabinoid receptor type 2 (Homo sapiens, UniProt P34972).
T2 construct: expressed in transfected cells; membrane preparation
T2 sequence (P34972 whole entry): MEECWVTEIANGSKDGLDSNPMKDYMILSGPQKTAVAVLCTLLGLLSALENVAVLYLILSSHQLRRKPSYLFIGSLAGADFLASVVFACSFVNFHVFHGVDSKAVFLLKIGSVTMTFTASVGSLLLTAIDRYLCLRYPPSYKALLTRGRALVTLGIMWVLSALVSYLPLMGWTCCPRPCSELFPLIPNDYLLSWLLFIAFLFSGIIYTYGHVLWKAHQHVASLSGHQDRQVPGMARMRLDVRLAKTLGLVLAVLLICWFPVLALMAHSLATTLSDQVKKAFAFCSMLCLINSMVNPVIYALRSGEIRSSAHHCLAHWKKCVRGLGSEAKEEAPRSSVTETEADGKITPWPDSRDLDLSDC
Description: Human CB2 Radioligand Binding Assay. The following applies: competition with [3H] CP-55,940; membranes from stably transfected CHO CB2 cells; read-out: CB2 Ligand Binding Asssay EC50. A digest of the protocol: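 Test compounds (10 uM final, or dose-response) competed with [3H]CP-55,940, used at the Kd determined per membrane lot, for binding to stable human CB2-CHO membranes over 90 min at 30° C in pH 7.4 Tris/EGTA/MgCl2/BSA buffer. GF/C filtration then scintillation counting; 100 nM CP-55,940 defined 100% efficacy.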

T1 sequence (P21554 whole entry): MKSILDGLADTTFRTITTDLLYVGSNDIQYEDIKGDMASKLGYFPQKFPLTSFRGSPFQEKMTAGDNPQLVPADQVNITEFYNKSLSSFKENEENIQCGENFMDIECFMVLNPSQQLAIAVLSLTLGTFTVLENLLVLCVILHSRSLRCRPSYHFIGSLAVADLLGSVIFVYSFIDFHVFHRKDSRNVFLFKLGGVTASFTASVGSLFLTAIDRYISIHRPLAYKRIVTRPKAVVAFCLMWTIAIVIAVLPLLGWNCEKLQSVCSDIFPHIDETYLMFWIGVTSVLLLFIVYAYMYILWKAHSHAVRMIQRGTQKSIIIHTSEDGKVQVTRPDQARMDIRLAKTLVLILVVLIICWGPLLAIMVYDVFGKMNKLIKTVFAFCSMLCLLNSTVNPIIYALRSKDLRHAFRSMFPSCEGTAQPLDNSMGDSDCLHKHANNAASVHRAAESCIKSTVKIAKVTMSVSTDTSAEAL

`CCOC(=O)N1CCN(c2nc(Cc3cccc(OC)c3)nc3ccccc23)CC1` [Example 196, Ethyl 4-(2-(3-Methoxybenzyl)quinazolin-4-yl)piperazine-1-carboxylate]: the “Selectivity, CB2 vs. CB1” value in assay [1] was “− (− indicates ≦ 10−fold)”. Moreover, the EC50 in assay [2] is over 1000 nM.

Turning to `c1ccc(Cc2nc(N3CCCCC3)c3ccccc3n2)cc1` [Example 339, 2-Benzyl-4-(piperidin-1-yl)quinazoline], the “Selectivity, CB2 vs. CB1” value in assay [1] is listed as “− (− indicates ≦ 10−fold)”. In addition, in assay [2], the EC50 was over 1000 nM.

Take `Clc1ccc(-c2nc(N3CCCC3)c3ccccc3n2)cc1` [Example 128, 2-(4-Chlorophenyl)-4-(pyrrolidin-1-yl)quinazoline]: the “Selectivity, CB2 vs. CB1” value in assay [1] is listed as “+ (+ indicates > 10−fold)”. Moreover, the 50% effective concentration (EC50) in assay [2] was under 1000 nM.

In the case of `CN1CCN(c2nc(CNS(=O)(=O)c3cccc4ccccc34)nc3ccccc23)CC1` [Example 5, N-((4-(4-Methylpiperazin-1-yl)quinazolin-2-yl)methyl)naphthalene-1-sulfonamide], the “Selectivity, CB2 vs. CB1” value in assay [1] is listed as “+ (+ indicates > 10−fold)”. Besides, in assay [2], the concentration giving a half-maximal response (EC50) was under 1000 nM.

Take `CN1CCN(c2nc(-c3ccc(Cl)cc3)nc3ccccc23)CC1` [Example 122, 2-(4-Chlorophenyl)-4-(4-methylpiperazin-1-yl)quinazoline]: in assay [1], the “Selectivity, CB2 vs. CB1” value is “+ (+ indicates > 10−fold)”. In addition, the EC50 in assay [2] is under 1000 nM.

With `O=S(=O)(NCc1nc(N2CCCC2)c2ccccc2n1)c1ccc(F)cc1F` [Example 4, 2,4-Difluoro-N-((4-(pyrrolidin-1-yl)quinazolin-2-yl)methyl)benzenesulfonamide], the “Selectivity, CB2 vs. CB1” value in assay [1] is “− (− indicates ≦ 10−fold)”. Further, the EC50 in assay [2] is under 1000 nM.

As for `CCOC(=O)N1CCN(c2nc(-c3ccccc3F)nc3ccccc23)CC1` [Example 279, Ethyl 4-(2-(2-fluorophenyl)quinazolin-4-yl)piperazine-1-carboxylate], in assay [1], the “Selectivity, CB2 vs. CB1” value is “+ (+ indicates > 10−fold)”. In assay [2], the concentration for a half-maximal effect (EC50) is under 1000 nM.

For the compound `Cn1ccnc1C(=O)N1CCN(c2nc(-c3ccccc3Cl)nc3ccccc23)CC1` [Example 263, (4-(2-(2-chlorophenyl)quinazolin-4-yl)piperazin-1-yl)(1-methyl-1H-imidazol-2-yl)methanone], the “Selectivity, CB2 vs. CB1” value in assay [1] is “− (− indicates ≦ 10−fold)”. Besides, the EC50 in assay [2] is over 1000 nM.

On to `CCOC(=O)N1CCN(c2nc(C3CCCCC3)nc3ccc(Cl)cc23)CC1` [Example 221, Ethyl 4-(6-chloro-2-cyclohexylquinazolin-4-yl)piperazine-1-carboxylate], for which the “Selectivity, CB2 vs. CB1” value in assay [1] was “+ (+ indicates > 10−fold)”. Besides, in assay [2], the concentration giving a half-maximal response (EC50) was under 1000 nM.

`CN(Cc1ccccc1)c1nc(-c2ccc(C(C)(C)C)cc2)nc2ccccc12` [Example 113, N-Benzyl-2-(4-tert-butylphenyl)-N-methylquinazolin-4-amine]: the “Selectivity, CB2 vs. CB1” value in assay [1] is “− (− indicates ≦ 10−fold)”. Moreover, in assay [2], the EC50 is over 1000 nM.

On to `CCOC(=O)N1CCN(c2nc(-c3ccccc3Cl)nc3ccc(Cl)cc23)CC1` [Example 206, Ethyl 4-(6-chloro-2-(2-chlorophenyl)quinazolin-4-yl)piperazine-1-carboxylate], for which the “Selectivity, CB2 vs. CB1” value in assay [1] is listed as “− (− indicates ≦ 10−fold)”. Besides, in assay [2], the 50% effective concentration (EC50) is over 1000 nM.

`CNC(=O)c1sccc1S(=O)(=O)NCc1nc(N2CCCC2)c2ccccc2n1` [Example 8, N-Methyl-3-(N-((4-(pyrrolidin-1-yl)quinazolin-2-yl)methyl)sulfamoyl)thiophene-2-carboxamide]: in assay [1], the “Selectivity, CB2 vs. CB1” value is reported as “+ (+ indicates > 10−fold)”. Also, the EC50 in assay [2] is over 1000 nM.

As for `FC(F)(F)c1ccc(-c2nc(N3CCOCC3)c3ccccc3n2)cc1` [Example 43, 4-(2-(4-(Trifluoromethyl)phenyl)quinazolin-4-yl)morpholine], the “Selectivity, CB2 vs. CB1” value in assay [1] is given as “+ (+ indicates > 10−fold)”. Besides, in assay [2], the EC50 was under 1000 nM.

For `CC(C)(C)c1ccc2nc(-c3ccccc3Cl)nc(N3CCCC3)c2c1` [Example 171, 6-tert-Butyl-2-(2-chlorophenyl)-4-(pyrrolidin-1-yl)quinazoline], in assay [1], the “Selectivity, CB2 vs. CB1” value is on record as “+ (+ indicates > 10−fold)”. For the same compound, the EC50 in assay [2] is under 1000 nM.

For `CCOC(=O)N1CCN(c2nc(-c3ccccc3Cl)nc3cc(Cl)ccc23)CC1` [Example 234, Ethyl 4-(7-chloro-2-(2-chlorophenyl)quinazolin-4-yl)piperazine-1-carboxylate], in assay [1], the “Selectivity, CB2 vs. CB1” value is listed as “− (− indicates ≦ 10−fold)”. The EC50 in assay [2] is over 1000 nM.

As to `O=S(=O)(NCc1nc(N2CCCC2)c2ccc(Cl)cc2n1)c1cccc2ccccc12` [Example 309, N-((7-Chloro-4-(pyrrolidin-1-yl)quinazolin-2-yl)methyl)naphthalene-1-sulfonamide], the “Selectivity, CB2 vs. CB1” value in assay [1] is reported as “+ (+ indicates > 10−fold)”. In addition, the EC50 in assay [2] was under 1000 nM.

On to `CC(=O)N1CCN(c2nc(-c3ccccc3Cl)nc3cc(Cl)ccc23)CC1` [Example 233, 1-(4-(7-Chloro-2-(2-chlorophenyl)quinazolin-4-yl)piperazin-1-yl)ethanone], for which the “Selectivity, CB2 vs. CB1” value in assay [1] is recorded as “− (− indicates ≦ 10−fold)”. Further, the EC50 in assay [2] is under 1000 nM.

Regarding `O=S(=O)(NCc1nc(N2CCOCC2)c2ccccc2n1)c1cccc2ccccc12` [Example 300, N-((4-Morpholinoquinazolin-2-yl)methyl)naphthalene-1-sulfonamide], the “Selectivity, CB2 vs. CB1” value in assay [1] is listed as “+ (+ indicates > 10−fold)”. Besides, the EC50 in assay [2] is under 1000 nM.

Regarding `CN(c1ccc(F)cc1F)c1nc(-c2ccc(C(C)(C)C)cc2)nc2ccccc12` [Example 116, 2-(4-tert-Butylphenyl)-N-(2,4-difluorophenyl)-N-methylquinazolin-4-amine], in assay [1], the “Selectivity, CB2 vs. CB1” value is given as “− (− indicates ≦ 10−fold)”. Also, the 50% effective concentration (EC50) in assay [2] is over 1000 nM.

`CN(Cc1ccccc1)c1nc(-c2ccccc2Cl)nc2ccccc12` [Example 55, N-Benzyl-2-(2-chlorophenyl)-N-methylquinazolin-4-amine]: in assay [1], the “Selectivity, CB2 vs. CB1” value is reported as “− (− indicates ≦ 10−fold)”. Besides, the 50% effective concentration (EC50) in assay [2] is under 1000 nM.

As for `c1ccc(-c2nc(N3CCCC3)c3ccccc3n2)cc1` [Example 48, 2-Phenyl-4-(pyrrolidin-1-yl)quinazoline], the “Selectivity, CB2 vs. CB1” value in assay [1] is reported as “− (− indicates ≦ 10−fold)”. Besides, the EC50 in assay [2] is over 1000 nM.

Regarding `Fc1ccc(-c2nc(N3CCOCC3)c3ccccc3n2)cc1F` [Example 16, 4-(2-(3,4-difluorophenyl)quinazolin-4-yl)morpholine], in assay [1], the “Selectivity, CB2 vs. CB1” value is given as “− (− indicates ≦ 10−fold)”. The EC50 in assay [2] was over 1000 nM.

On to `Fc1cccc2nc(-c3ccccc3Cl)nc(N3CCCC3)c12` [Example 248, 2-(2-Chlorophenyl)-5-fluoro-4-(pyrrolidin-1-yl)quinazoline], for which the “Selectivity, CB2 vs. CB1” value in assay [1] is given as “+ (+ indicates > 10−fold)”. Besides, in assay [2], the EC50 is under 1000 nM.

With `Clc1ccccc1-c1nc(N2CCCC2)c2cccc(Cl)c2n1` [Example 227, 8-Chloro-2-(2-chlorophenyl)-4-(pyrrolidin-1-yl)quinazoline], the “Selectivity, CB2 vs. CB1” value in assay [1] was “− (− indicates ≦ 10−fold)”. Besides, in assay [2], the concentration for a half-maximal effect (EC50) is under 1000 nM.

On to `CCc1ccc2nc(-c3ccccc3Cl)nc(N3CCCC3)c2c1` [Example 176, 2-(2-Chlorophenyl)-6-ethyl-4-(pyrrolidin-1-yl)quinazoline], for which the “Selectivity, CB2 vs. CB1” value in assay [1] is on record as “+ (+ indicates > 10−fold)”. Further, the EC50 in assay [2] is under 1000 nM.

For `FC(F)(F)Oc1ccc2nc(-c3ccccc3Cl)nc(N3CCSCC3)c2c1` [Example 204, 4-(2-(2-Chlorophenyl)-6-(trifluoromethoxy)quinazolin-4-yl)thiomorpholine], the “Selectivity, CB2 vs. CB1” value in assay [1] is on record as “− (− indicates ≦ 10−fold)”. Besides, in assay [2], the concentration for a half-maximal effect (EC50) is under 1000 nM.

Take `Clc1ccnc(N2CCN(c3nc(-c4ccccc4Cl)nc4ccccc34)CC2)n1` [Example 198]: in assay [1], the “Selectivity, CB2 vs. CB1” value is “− (− indicates ≦ 10−fold)”. For the same compound, the EC50 in assay [2] is over 1000 nM.

In the case of `CCCN1[C@H](C)CN(c2nc(-c3ccccc3Cl)nc3ccccc23)C[C@@H]1C` [Example 79, 2-(2-Chlorophenyl)-4-((3S,5R)-3,5-dimethyl-4-propylpiperazin-1-yl)quinazoline], the “Selectivity, CB2 vs. CB1” value in assay [1] is listed as “− (− indicates ≦ 10−fold)”. For the same compound, the concentration for a half-maximal effect (EC50) in assay [2] was under 1000 nM.

For `c1ccc2c(N3CCOCC3)nc(C3CCCCC3)nc2c1` [Example 35, 4-(2-Cyclohexylquinazolin-4-yl)morpholine], the “Selectivity, CB2 vs. CB1” value in assay [1] is given as “− (− indicates ≦ 10−fold)”. Besides, the EC50 in assay [2] is under 1000 nM.

For the compound `FC(F)(F)Oc1ccc2nc(-c3ccccc3Cl)nc(N3CCCCC3)c2c1` [Example 181, 2-(2-Chlorophenyl)-4-(piperidin-1-yl)-6-(trifluoromethoxy) quinazoline], in assay [1], the “Selectivity, CB2 vs. CB1” value is “− (− indicates ≦ 10−fold)”. In addition, the concentration for a half-maximal effect (EC50) in assay [2] was over 1000 nM.

Regarding `Clc1nccc(N2CCN(c3nc(-c4ccccc4Cl)nc4ccccc34)CC2)n1` [Example 197, 2-(2-Chlorophenyl)-4-(4-(2-chloropyrimidin-4-yl)piperazin-1-yl)quinazoline], the “Selectivity, CB2 vs. CB1” value in assay [1] is recorded as “+ (+ indicates > 10−fold)”. Also, the concentration giving a half-maximal response (EC50) in assay [2] is under 1000 nM.

Regarding `CCOC(=O)N1CCN(c2nc(-c3ccccc3Cl)nc3cccc(OC)c23)CC1` [Example 244, Ethyl 4-(2-(2-chlorophenyl)-5-methoxyquinazolin-4-yl)piperazine-1-carboxylate], the “Selectivity, CB2 vs. CB1” value in assay [1] is listed as “+ (+ indicates > 10−fold)”. Moreover, in assay [2], the concentration for a half-maximal effect (EC50) was under 1000 nM.
